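48-hour exposure; five concentrations; linearly interpolated endpoints. TGI: concentration producing complete growth inhibition.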

Holding throughout (test): NCI anticancer screen, dose series, 48 h
The subject of experiment [1] is SN12C renal.
Experiment [2] has as its system LOX IMVI melanoma.
In experiment [3] the test system is 786-0 renal.
Experiment [4] concerns NCI-H23 lung.
For experiment [5], the system named is MDA-MB-435.
The subject of experiment [6] is TK-10 renal.
Experiment [7] concerns BT-549 breast.
Experiment [8] concerns T-47D breast.
Experiment [9] relates to A498 renal.
The test system of experiment [10] is MOLT-4 leukemia.
Experiment [11] deals with RXF 393 renal.
The test system of experiment [12] is COLO 205 colon.
For experiment [13], the system named is SK-MEL-5 melanoma.
Experiment [14] concerns ACHN renal.
Experiment [15] has as its system OVCAR-5 ovarian.
Experiment [16] deals with IGROV1 ovarian.
Experiment [17] concerns NCI-H226 lung.

As for `N#C/C(=C\N1CCNC1=S)C(=O)c1ccc2ccccc2c1`, the TGI in experiment [1], in experiment [2], in experiment [3], in [4], in [5] and in experiment [6] was greater than 100 µM in each case. Moreover, the TGI in [7], in [8], in experiment [9], in [10], in experiment [11] and in [12] was greater than 100 µM in each case. Also, the TGI in experiment [13], in [14], in experiment [15], in experiment [16] and in experiment [17] was greater than 100 µM each time.
For `Cc1ccc(-c2n[nH]c(=O)n2N)cc1`, the TGI in experiment [1], in experiment [2], in experiment [3], in experiment [4], in experiment [5] and in experiment [6] was greater than 100 µM in each case. Further, the TGI in experiment [7], in experiment [8], in [9], in [10], in experiment [12] and in [13] was greater than 100 µM in each case. Also, the TGI in [14], in [15], in experiment [16] and in experiment [17] was greater than 100 µM each time.
As to `CNC(=S)N/N=C(\C)c1ccc(OC)cc1O`, the TGI in experiment [1], in experiment [2], in [3], in [4], in experiment [5] and in experiment [7] was greater than 100 µM in each case. Also, the TGI in experiment [8] is greater than 100 µM; in [9], greater than 100 µM; in experiment [10], greater than 100 µM; in experiment [11], greater than 100 µM; in experiment [12], greater than 100 µM; in [13] it was greater than 69.5 µM. Further, the TGI in experiment [14], in experiment [15], in experiment [16] and in [17] was greater than 100 µM throughout.
For `CC(C)Nc1n[nH]c(=O)n1C(C)C`, the TGI in experiment [1], in experiment [2], in experiment [3], in experiment [4], in experiment [5] and in [6] was greater than 100 µM in each case. Besides, the TGI in experiment [7], in experiment [8], in experiment [9], in experiment [10], in experiment [12] and in experiment [13] was greater than 100 µM throughout. The TGI in [14], in experiment [15], in experiment [16] and in [17] was greater than 100 µM in each case.
On to `CNNC1=NS(=O)(=O)c2cc(C(=O)OC)c(Cl)cc2S1`, for which the TGI in experiment [1], in experiment [2], in experiment [3], in experiment [4], in experiment [5] and in [6] was greater than 10 µM in each case. For the same compound, the TGI in [7], in [8], in experiment [9], in experiment [10], in [11] and in [12] was greater than 10 µM in each case. The TGI in experiment [13], in experiment [14], in experiment [15], in experiment [16] and in [17] was greater than 10 µM in each case.
In the case of `CCOC(=O)c1c2ccccc2n2c(=O)n(C)nnc12`, the TGI in experiment [1], in experiment [2], in experiment [3], in experiment [4], in experiment [5] and in experiment [6] was greater than 100 µM each time. Also, the TGI in experiment [7] is greater than 100 µM; in experiment [8] it was greater than 100 µM; in experiment [9] it was greater than 100 µM; in experiment [11], 99.1 µM; in [12], greater than 100 µM; in experiment [13], greater than 100 µM. Also, the TGI in experiment [14], in experiment [15], in experiment [16] and in [17] was greater than 100 µM each time.
Regarding `COC(=O)C1=C(C(=O)OC)C2(/N=C(\Nc3ccccc3)c3ccccc3)N(c3ccc(OC)cc3)CC(c3ccccc3)N2O1` (configuration not stated), the TGI in experiment [1], in experiment [2], in [3], in [4], in experiment [5] and in [6] was greater than 100 µM throughout. The TGI in experiment [7], in [8], in experiment [9], in [10], in [11] and in [12] was greater than 100 µM in each case. Also, the TGI in experiment [13], in experiment [14], in experiment [15] and in experiment [16] was greater than 100 µM each time.
With `O=c1oc2ccccc2c(O)c1C(c1ccc([N+](=O)[O-])cc1)c1c(O)c2ccccc2oc1=O`, the TGI in [1], in [2], in experiment [3], in experiment [4], in experiment [5] and in experiment [6] was greater than 100 µM throughout. In addition, the TGI in experiment [7], in experiment [8], in experiment [9], in experiment [10], in experiment [12] and in [13] was greater than 100 µM each time. For the same compound, the TGI in experiment [16] and in experiment [17] was greater than 100 µM in each case.
For `S=c1scc(-c2ccc(Cl)cc2)n1OC1CCCC1`, the TGI in experiment [1] was greater than 100 µM; in experiment [2], greater than 100 µM; in [3], greater than 100 µM; in experiment [4], greater than 100 µM; in [5] it was 79.3 µM; in experiment [6], greater than 100 µM. Moreover, the TGI in [7] is 94.7 µM; in experiment [8], greater than 100 µM; in [9], 79.8 µM; in experiment [10] it was 67.7 µM; in experiment [11], greater than 100 µM; in [12] it was 26.5 µM. Besides, the TGI in experiment [13] was 24.4 µM; in experiment [14], 90.4 µM; in experiment [15] it was greater than 100 µM; in experiment [16], greater than 100 µM.
With `O=C1CC(CC(O)C(O)CO)CC(=O)N1` (configuration not stated), the TGI in experiment [1], in experiment [2], in [3], in [4], in experiment [5] and in [6] was greater than 100 µM throughout. The TGI in experiment [7], in experiment [8], in experiment [9], in experiment [10], in [13] and in experiment [14] was greater than 100 µM throughout. The TGI in [16] and in experiment [17] was greater than 100 µM throughout.
On to `Cc1c2ccccc2nc2[nH]c3ccncc3c12`, for which the TGI is 85.1 µM in experiment [1]; 45.4 µM in experiment [2]; 71.5 µM in experiment [3]; 74.3 µM in experiment [4]; greater than 100 µM in experiment [5]; 59.4 µM in [6]. The TGI is greater than 100 µM in experiment [7]; greater than 100 µM in [8]; greater than 100 µM in [9]; greater than 100 µM in experiment [10]; greater than 100 µM in [12]; 95 µM in experiment [13]. In addition, the figures for the TGI in [14], in [15] and in experiment [16] were 77.2 µM, 95 µM and greater than 100 µM, respectively.
As for `CN(C)c1ncc(-c2c[nH]c3ccccc23)nc1-c1c[nH]c2ccccc12`, the TGI was found to be 5.78 µM in experiment [1]; 5.33 µM in experiment [2]; 4.07 µM in experiment [3]; 12.1 µM in experiment [5]; 22.1 µM in experiment [6]; 49.1 µM in experiment [7]. The TGI is 19.9 µM in experiment [8]; 4.56 µM in experiment [9]; 27.5 µM in experiment [10]; 4.11 µM in [11]; 5.2 µM in [12]; 15.9 µM in experiment [13]. For the same compound, the figures for the TGI in experiment [14], in experiment [15] and in experiment [16] were 6.88 µM, 16.9 µM and 13.5 µM, respectively.
Consider `COc1cc(CSc2ccc(O)cc2)cc(O)c1O`, for which the TGI in experiment [1] was 80.5 µM; in [2], greater than 100 µM; in experiment [3] it was greater than 100 µM; in [4] it was greater than 100 µM; in experiment [5] it was 94.6 µM; in experiment [6], greater than 100 µM. In addition, the TGI is 63.6 µM in experiment [7]; 53.4 µM in [8]; greater than 100 µM in experiment [9]; greater than 100 µM in [10]; greater than 100 µM in experiment [11]; 52.6 µM in experiment [12]. Besides, the TGI is greater than 100 µM in [14], 53.4 µM in experiment [15], greater than 100 µM in experiment [16] and 65.5 µM in [17].
Regarding `N=c1nc(N)nc(N)n1-c1ccc(S(N)(=O)=O)cc1`, the TGI in experiment [1], in [2], in experiment [3], in experiment [4], in experiment [5] and in experiment [6] was greater than 100 µM in each case. Further, the TGI in experiment [7], in experiment [8], in experiment [9], in experiment [10], in [11] and in experiment [13] was greater than 100 µM each time. Further, the TGI in experiment [14], in experiment [15], in [16] and in experiment [17] was greater than 100 µM throughout.
Regarding `CCOC(=O)c1c(N2CCOCC2)[nH]c(=O)c(C(c2ccc(N(C)C)cc2)c2c(O)c(C(=O)OCC)c(N3CCOCC3)[nH]c2=O)c1O`, the TGI in experiment [1], in experiment [2], in [3], in experiment [4], in experiment [5] and in experiment [6] was greater than 100 µM throughout. Moreover, the TGI in experiment [7], in [8], in [9], in experiment [10], in experiment [11] and in [12] was greater than 100 µM each time. In addition, the TGI in [13], in experiment [14], in experiment [15] and in experiment [17] was greater than 100 µM each time.
As for `O=C1C=CC(=O)c2c(O)c(Nc3ccc(OC(F)(F)F)cc3)c(Cl)c(O)c21`, the TGI in [1] was determined as 1.17 µM; in experiment [2], 0.677 µM; in [3], 1.26 µM; in [4], 0.708 µM; in [5] it was 2.17 µM; in experiment [6] it was 2.81 µM. In addition, the TGI in experiment [7] was found to be 3.12 µM; in experiment [8], 0.972 µM; in experiment [9], 9.36 µM; in [11] it was 1.39 µM; in experiment [12], 2.84 µM; in experiment [13] it was 5.15 µM. For the same compound, the TGI in [14] amounted to 2.76 µM; in experiment [15], 3.16 µM; in [17] it was 3.44 µM.
`Fc1ccc(C(OCCN2CC3CC2CN3CCCc2ccccc2)c2ccc(F)cc2)cc1` (configuration not stated): the TGI in [1] came to 22.1 µM; in experiment [2], 19.2 µM; in [3], 18 µM; in experiment [4], 23.8 µM; in experiment [5] it was 20.5 µM; in [6], 23.7 µM. Also, the TGI in [7] worked out at 24 µM; in experiment [8] it was 7.21 µM; in experiment [9], 18.3 µM; in experiment [10], 12.5 µM; in experiment [12] it was 3.11 µM; in experiment [13], 3.39 µM. Moreover, the TGI in experiment [14] amounted to 23.7 µM; in [15], 23.5 µM; in [16], 22.7 µM; in experiment [17], 23.9 µM.
As to `S=C(NNC1=NCCCCN1)Nc1ccccc1`, the TGI in [1] is greater than 100 µM; in [2], 94.7 µM; in experiment [3], greater than 100 µM; in experiment [4], greater than 100 µM; in [5], greater than 100 µM; in experiment [7], greater than 100 µM. Besides, the TGI in experiment [8], in experiment [9], in [10], in experiment [12], in experiment [13] and in experiment [14] was greater than 100 µM throughout. In addition, the TGI in experiment [15], in experiment [16] and in [17] was greater than 100 µM throughout.

For the origin of these results see PubChem BioAssay (NCI).
